Data taken from patent US11213815B2, “Netwell assay plate system” (VIB VZW, priority 2016, dated 2022).

Test system: Arabidopsis plants
Assay: Arabidopsis netwell growth assay (rosette area over time, plants grown in soil in the multiwell plate system)
Assay type: in vivo
Protocol: In the Arabidopsis […] growth assay, plants were grown in soil inside a 24 well […] insert plate comprising a polystyrene porous membrane with a pore size of about 420 μm, which is positioned into a 24 well irrigation plate (FIG. 1, 2). Before sowing, seeds were vernalized in water at 4 degrees Celsius for two days. Afterwards, the […] insert plate was filled with fine potting soil, or optionally with soil mixed with sand (ratio 3:1). During this process the soil (or soil with sand) was compressed two times (or optionally three times for soil/sand) by applying a light pressure onto the individual […]. A “humidity control” soil sample was taken for determination of the initial soil water humidity (see later). Next, one mL of water was added to each of the wells of the irrigation plates. The […] insert plates were positioned inside the irrigation plates and the mounted plates were sealed with (plastic) tape surrounding the edges, to prevent excessive water evaporation from the boundary wells as compared to the center wells of the 24 well plate. This was a crucial step to avoid growth differences between plants in boundary and center wells, and to obtain reproducible results. Next, the weight of the combined insert and irrigation plates was recorded. When seeds were used as samples, during the sowing of the Arabidopsis seeds, one seed was distributed in each of the wells. For germination, the […] insert plates were covered with a standard multiwell cover plate which was sealed with parafilm and was placed inside a plant growth chamber. After three days, the covers were removed and the plants continued to grow at normal atmospheric conditions. At 7 days after sowing, or when the appropriate plant stage was reached (e.g. 7 and 10 or 5 and 7 days), the plants received a (chemical) treatment. Therefore, 0.5 (optionally 0.8 mL for soil with sand) of a (chemical-containing) solution was added to each of the wells via the corresponding access holes. Each plant sample receives the supplied (same) amount of (chemical) solution. In the days following the treatment, the plants were again irrigated with water to maintain a soil water humidity of 3.5 (or optionally 0.95 for soil with sand) (see below). In the 24 well format the growth of Arabidopsis plants was typically followed for about 15 days, during which image analysis procedures were used to follow the growth of the individual plant samples over time and to quantify the growth response of these plants in response to the specific (chemical) treatments. The initial soil water humidity was determined by first drying the “humidity control” soil sample in an oven at 60 degrees Celsius, to obtain the “dry weight”. Next, taking into account the weight of the empty irrigation plates, the empty […] insert plates, and the current weight of the combined insert and irrigation plates, water was added to each of the wells to reach a “soil water humidity” of “3.5 gram water per gram of dry soil” or “3.5” (optionally, when soil with sand was used: “0.95 gram water per gram of dry soil (with sand)” was used as initial soil water humidity value). Water was added into the irrigation plate wells through the access holes present in the corresponding […] insert plate wells using a repetition pipet. Due to equal evaporation of water from individual wells within one insert plate, each well of the irrigation plate received the same amount of water, rounded to 100 μL. The water, added to the wells in the irrigation plates, is taken up by the soil present in the hollow chambers of the […] insert plate wells, through the mesh by capillary forces (FIG. 3B). This irrigation was repeated on a daily basis to prevent excessive drying of the soil in the wells. This watering regime is suitable for frequently used Arabidopsis growth conditions, but can be altered and further optimized when a plant drought-stress response is the desired testing regime. Plants were grown as described in the above […] assay method. […]

## CC(C)(C)[C@@H](O)[C@@H](Cc1ccc(Cl)cc1)n1cncn1 (racemic) [Paclobutrazol]
Example 6, 0.8 mL at 7 and 10 DAS, Paclobutrazol 10, 20, 100 μM vs 0.1% DMSO, FIG. 8B
  effect on plant growth (rosette area), dose response: plant growth retarding effect

## c1ccc(CNc2ncnc3nc[nH]c23)cc1 [BAP, 6-Benzylaminopurine]
Example 2, 0.5 mL treatment solution at 8 DAS, 10 μM Kresoxim-methyl or 10 μM 6-Benzylaminopurine, imaging 4-16 DAS, vs water control, FIG. 4
  effect on plant growth (average projected rosette area over time): shoot growth inhibition

## O=C(O)Cc1cccc2ccccc12 [NAA, 1-Naphthaleneacetic acid]
Example 5, 0.8 mL at 7 and 10 DAS, 1, 10, 20, 100 μM NAA vs DMSO vehicle, imaging 4-14 DAS, FIG. 7B
  rosette size versus NAA concentration: The higher the concentration of NAA during the treatment, the smaller the rosette size
Example 5, rosette growth, concentration at which maximal inhibition was probably already reached
  maximal inhibitory concentration: ≤ 50 µM

## O=C(O)/C=C\c1ccccc1 [cis-CA, cis-cinnamic acid]
Example 6, 0.8 mL at 7 and 10 DAS, cis-CA 20, 50, 100 μM vs 0.1% DMSO, FIG. 8A
  effect on plant growth (rosette area) at higher concentration, dose response: plant growth retarding effect
Example 6, 0.8 mL at 7 and 10 DAS, cis-CA at 1 (unit not given) vs 0.1% DMSO, FIG. 8A
  effect on plant growth (rosette area) at low concentration: slightly positive effect
Example 6, cis-CA at higher concentration (20, 50, 100 μM), FIG. 8A
  toxicity for the plant at higher concentration: rather toxic for the plant
